The target in assay [1] is wild type PRC2 (wtPRC2) complex (Homo sapiens, UniProt Q15910). The assay can be described thus: EZH2 LC-MS Assay. It counts as biochemical. The conditions noted are these: 40 nM wtPRC2 complex, 30 uM SAM, 1.5 uM H3K27me1 and 3 uM H3K27me3 peptides; SAH production. As to the method: Representative compounds of the invention were serially and separately diluted 3-fold in DMSO to obtain twelve concentrations. Then the test compounds at each concentration (120 nL of each) were transferred by Mosquito into a 384-well Perkin Elmer ProxiPlate 384 plus plates. Solutions (6 μL) of 80 nM wild type PRC2 (wtPRC2) complex and 60 µM SAM in reaction buffer (20 mM Tris, pH 8.0, 0.1% BSA, 0.01% Triton, 0.5 mM DTT) were added to the wells that were then incubated with the test compound for 20 min. A 6 μL solution of 3 µM of the substrate peptide H3K27me1 (histone H3 [21-44]-K27me1-biotin) and 6 μM regulatory peptide H3K27me3 (histone H3 [21-44]-K27me3) in reaction buffer was added to initiate each reaction. The final components in the reaction solution include 40 nM wtPRC2 complex, 30 µM SAM, 1.5 µM H3K27me1 and 3 µM H3K27me3 peptides with varying concentration of the compounds. A positive control consisted of the enzyme at 40 nM, 30 μM SAM, 1.5 µM H3K27me1 and 3 µM H3K27me3 in the absence of the test compound, and a negative control consisted of 30 µM SAM, 1.5 µM H3K27me1 and 3 μM H3K27me3 only. Each reaction was incubated at room temperature for 120 min, then stopped by addition of 3 μL per of quench solution (2.5% TFA with 320 nM d4-SAH). The reaction mixture was centrifuged (Eppendorf centrifuge 5810, Rotor A-4-62) for 2 min at 2000 rpm and read on an API 4000 triple quadrupole mass spec with Turbulon Spray (Applied Biosystem) coupled with Prominence UFLC (Shimadzu). The levels of SAH production were normalized based on the values coming from the positive and negative controls to give percent enzyme activities. The data were fit to a dose response equation using the program Helios to get the […] values of the test compound.
wild type PRC2 (wtPRC2) complex, sequence (Q15910 whole entry): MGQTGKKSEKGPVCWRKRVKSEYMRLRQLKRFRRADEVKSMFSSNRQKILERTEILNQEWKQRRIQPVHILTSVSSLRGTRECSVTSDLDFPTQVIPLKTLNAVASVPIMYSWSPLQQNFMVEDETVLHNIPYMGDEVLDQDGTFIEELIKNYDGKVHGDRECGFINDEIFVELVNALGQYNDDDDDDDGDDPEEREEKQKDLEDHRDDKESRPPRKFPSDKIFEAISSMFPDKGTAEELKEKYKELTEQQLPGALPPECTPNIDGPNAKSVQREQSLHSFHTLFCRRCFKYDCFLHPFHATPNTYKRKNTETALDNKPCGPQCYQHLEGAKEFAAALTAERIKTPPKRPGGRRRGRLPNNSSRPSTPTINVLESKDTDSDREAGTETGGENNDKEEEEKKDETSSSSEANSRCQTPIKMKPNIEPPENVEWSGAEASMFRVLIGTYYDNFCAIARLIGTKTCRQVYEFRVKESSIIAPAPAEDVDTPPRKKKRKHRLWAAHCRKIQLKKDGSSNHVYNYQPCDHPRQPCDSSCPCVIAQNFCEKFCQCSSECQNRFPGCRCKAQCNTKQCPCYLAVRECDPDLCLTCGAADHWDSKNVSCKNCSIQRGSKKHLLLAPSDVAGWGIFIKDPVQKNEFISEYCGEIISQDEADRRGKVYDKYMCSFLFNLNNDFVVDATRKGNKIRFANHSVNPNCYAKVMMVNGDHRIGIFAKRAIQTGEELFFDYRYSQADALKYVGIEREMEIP
wild type PRC2 (wtPRC2) complex, sequence (O75530 whole entry partner): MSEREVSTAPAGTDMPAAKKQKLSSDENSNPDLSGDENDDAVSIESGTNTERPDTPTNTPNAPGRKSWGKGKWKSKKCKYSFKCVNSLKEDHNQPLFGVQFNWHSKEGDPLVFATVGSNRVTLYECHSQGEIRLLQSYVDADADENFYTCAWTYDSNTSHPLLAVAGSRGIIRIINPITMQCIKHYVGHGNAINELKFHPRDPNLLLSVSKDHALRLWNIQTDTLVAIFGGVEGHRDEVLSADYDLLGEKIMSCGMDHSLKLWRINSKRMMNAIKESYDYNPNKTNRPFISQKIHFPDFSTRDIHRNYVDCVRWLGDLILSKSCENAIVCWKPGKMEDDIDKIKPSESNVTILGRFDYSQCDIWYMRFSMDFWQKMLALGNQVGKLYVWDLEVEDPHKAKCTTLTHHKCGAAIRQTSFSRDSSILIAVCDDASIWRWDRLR
wild type PRC2 (wtPRC2) complex, sequence (Q15022 whole entry partner): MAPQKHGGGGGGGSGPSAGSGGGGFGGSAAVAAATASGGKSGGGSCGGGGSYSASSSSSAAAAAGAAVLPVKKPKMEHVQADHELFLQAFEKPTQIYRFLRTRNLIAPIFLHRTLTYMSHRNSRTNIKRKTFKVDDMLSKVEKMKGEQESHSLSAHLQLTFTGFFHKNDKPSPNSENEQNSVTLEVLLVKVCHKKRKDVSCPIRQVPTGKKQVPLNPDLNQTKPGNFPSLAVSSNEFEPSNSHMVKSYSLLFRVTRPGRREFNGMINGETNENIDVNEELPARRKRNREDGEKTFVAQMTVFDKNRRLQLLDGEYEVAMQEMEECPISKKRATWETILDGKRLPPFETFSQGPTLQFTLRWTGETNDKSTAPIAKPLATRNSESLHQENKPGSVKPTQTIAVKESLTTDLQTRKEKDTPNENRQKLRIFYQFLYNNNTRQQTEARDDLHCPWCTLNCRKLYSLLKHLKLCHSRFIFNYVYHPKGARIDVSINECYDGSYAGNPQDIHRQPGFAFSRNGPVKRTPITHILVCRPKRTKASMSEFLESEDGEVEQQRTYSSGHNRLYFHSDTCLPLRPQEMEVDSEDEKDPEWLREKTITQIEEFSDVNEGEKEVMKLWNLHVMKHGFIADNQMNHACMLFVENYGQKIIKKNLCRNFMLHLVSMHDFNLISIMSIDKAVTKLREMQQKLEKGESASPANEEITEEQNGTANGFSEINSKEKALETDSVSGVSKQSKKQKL

Assay [2] concerns H3K27 methylation in G401 cell. The assay can be described thus: ELISA (H3K27 methylation) assay. The format is cell-based. The settings on record: Homo sapiens, G-401, 48 h, cultured 48 h with compound, normalized using H3 signal. The procedure: ELISA (H3K27 methylation) assay
Representative compounds of the invention were serially and separately diluted 3-fold in DO to obtain a total of eight or twelve concentrations. Then the compounds were added to G401 cell cultured in 384-well plate at 1:500 dilution to obtain the highest concentration of 20 μM. The cells were further cultured for 48 h before ELISA procedure.
Histone extraction: Cells, in 384-well plate, were washed with PBS (10 x PBS buffer (80 g NaCl (Sigma, S3014), 2 g KCl (Sigma, 60128), 14.4 g Na2HPO4 (Sigma, S5136), 2.4 g KH2PO4 (Sigma, P9791) to 1 L water, pH to 7.4) and lysed with the addition of lysis buffer (0.4N HCl; 45 μl per well). The plate was gently agitated at 4° C. for 30 min. The cell lysate was neutralized with neutralization buffer (0.5 M sodium phosphate dibasic, pH 12.5. 1 mM DTT; 36 µL per well). The plate was agitated to ensure the lysates were well mixed prior to the ELISA protocol.
ELISA protocol: Cell lysates were transferred to the wells of a 384-well plate and the final volume was adjusted to 50 μL per well with PBS. The plate was sealed, centrifuged at 2,000 rpm for 2 min and incubated at 4° C. for about 16 h. The plate was washed with TBST buffer (1 x TBS (10x TBS: 24.2 g Tris (Sigma, T6066), 80 g NaCl (Sigma, S3014) to 1 L of water and adjust pH to 7.6 with HCl) with 0.1% Tween-20). Blocking buffer (TBST, 5% BSA; 50 µL per well) was added and the plate was incubated for 1 h at rt. The blocking buffer was removed and primary antibody was added (30 μL per well). The following dilutions were performed with blocking buffer: for anti-H3K27me3 antibody (Cell Signaling Technology, #9733), dilution was 1:1000; for anti-H3K27me2 antibody (Cell Signaling Technology, #9288), dilution was 1:100; for anti-H3 antibody (Abcam, Cat #24834), dilution was 1:1000. The primary antibody was incubated in the plate at rt for 1 h. The wells were washed with TBST and incubated with secondary antibody for 1 h at rt. For secondary antibodies, the following dilutions were carried out with blocking buffer: anti-rabbit antibody (Jackson ImmunoResearch, #111-035-003), dilution was 1:2000; and anti-mouse antibody (Cell signaling technology, #7076), dilution was 1:1000.
After 1 h of incubation at rt, the wells were washed with TBST. ECL substrate (Pierce, #34080) was added at 30 μL per well and the plates were centrifuged at 2,000 rpm for 2 min. The signal was read using a PerkinElmer Envision Reader. The H3K27 methylation readouts were normalized using H3 signal and then percentage inhibition was calculated against the samples treated with DO. The data were fit to a dose response curve using the program Helios to get the IC50 values of the test compound.
(ELISA stands for enzyme-linked immunosorbent assay.)

The structures appear in SMILES notation.

The IC50 is the concentration needed to halve the response being measured.

Regarding `Cc1ccc2ccc(N[C@H]3CC[C@H](CNc4ncc(C(C)C(=O)NC5COC5)cn4)CC3)nc2c1Cl` (stereo partly shown) [Example 12, 2-(2-((((1r,4r)-4-((8-chloro-7-methylquinolin-2-yl)amino)cyclohexyl)methyl)amino)pyrimidin-5-yl)-N-(oxetan-3-yl)propanamide], the results for the IC50 in assay [1] and in assay [2] were under 50 nM and under 10 nM, respectively.
Turning to `Cc1ccc2ccc(N[C@H]3CC[C@H](CNc4ccc(CC(=O)NC5COC5)cn4)CC3)nc2c1Cl` [Example 15, 2-(6-((((1r,4r)-4-((8-chloro-7-methylquinolin-2-yl)amino)cyclohexyl)methyl)amino)pyridin-3-yl)-N-(oxetan-3-yl)acetamide], the IC50 in assay [1] was under 50 nM; in assay [2], under 10 nM.

Source of the values: US12473273B2, “Quinoline compounds and compositions for inhibiting EZH2” (Novartis AG, priority 2020, dated 2025).
